# Measurements published in patent US8945864B2, “Method of determining 1,5-anhydroglucitol, and reagent composition for determining 1,5-anhydroglucitol” (Ikeda Food Research Co., Ltd., priority 2006, dated 2015).
# Like-named read-outs stand apart in the source and are kept apart here.
# How the values were obtained:
# [1] = target: T1, sorbose dehydrogenase (Sinorhizobium meliloti, UniProt Q92YU0); assay: Inhibitor test: additive in the reaction solution for the activity measurement; type: biochemical, Sinorhizobium sp. 97507; conditions: for activity at 1000 µM: read-out: Relative activity (%)
# [2] = target: T1, sorbose dehydrogenase; assay: Substrate specificity of sorbose dehydrogenase (relative reactivity, DCIP method); type: biochemical, Sinorhizobium sp. 97507
# Protocol: One mL of a 0.1 M potassium phosphate buffer, pH 7.0, 1.0 mL of 1.0 M L-sorbose, 0.14 mL of 3 mM 2,6-dichlorophenol indophenol (DCIP), 0.2 mL of 3 mM 1-methoxy-5-methylphenazinium methyl sulfate, and 0.61 mL of water were added to a 3 mL quartz cell, and the quartz cell was set to a spectrophotometer equipped with a thermostat cell holder, and incubated at 37° C. for ten minutes. Then, 0.05 mL of the enzyme solution was added to the quartz cell, and changes in absorbance of DCIP at 600 nm (AABS600/min) was measured at 37° C. As the molar extinction coefficient of DCIP at pH 7.0 is known as 16.3 mM^−1, and the amount of enzyme that reduced 1 μmol of DCIP for one minute is defined as one unit. Following the definition, the concentration of enzyme activity was calculated based on the following equation. enzyme activity (units/mL)=(−ΔABS600/min×3.0×dilution rate)/(16.3×1.0×0.05)
# Measurement conditions in the above “method of measuring enzyme activity” were suitably modified as necessary, and the optimal pH, pH stability, optimal temperature, temperature stability, substrate specificity, Km value, total molecular weight, subunit molecular weight, inhibitor, and product of the enzyme reaction were identified. The properties of the enzyme were evaluated in accordance with the following tests.
# […]. The results are shown as a relative value of each substrate with reference to the value of activity of L-sorbose as a standard.
# [3] = additive final concentration 1.0 mM, control without additive = 100%
# [4] = substrate 333 mM (lactose 167 mM)
# [5] = substrate final concentration 333 mM, […]
# [6] = substrate final concentration 333 mM, relative to activity of L-sorbose as standard (100)
# T1 sequence (Q92YU0 entry or part of it): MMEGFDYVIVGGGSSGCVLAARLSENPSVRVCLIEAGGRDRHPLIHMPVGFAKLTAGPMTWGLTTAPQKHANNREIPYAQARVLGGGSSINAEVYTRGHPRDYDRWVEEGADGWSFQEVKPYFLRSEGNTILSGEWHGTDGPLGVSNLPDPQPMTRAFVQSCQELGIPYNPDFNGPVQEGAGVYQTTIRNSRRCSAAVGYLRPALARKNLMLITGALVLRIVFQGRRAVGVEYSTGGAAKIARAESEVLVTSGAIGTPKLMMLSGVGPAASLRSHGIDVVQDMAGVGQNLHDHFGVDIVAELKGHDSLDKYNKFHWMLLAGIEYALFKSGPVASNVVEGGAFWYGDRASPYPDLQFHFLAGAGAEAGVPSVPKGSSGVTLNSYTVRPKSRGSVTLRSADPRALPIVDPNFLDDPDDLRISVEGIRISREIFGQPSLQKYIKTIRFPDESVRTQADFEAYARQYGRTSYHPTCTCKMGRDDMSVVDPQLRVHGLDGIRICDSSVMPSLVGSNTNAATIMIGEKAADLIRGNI
molecule,measurement,setting,value
O=C(O)c1ccccc1 [Benzoic acid],activity at 1000 µM,[1],101%
CCO [Ethanol],Effect of the sorbose dehydrogenase on the substrate (in words),[2],little effect
same,Relative activity (%),[2],0%
Triton X-100,Relative activity (%),[1]; [3],39%
O[C@H]1[C@H](O)[C@@H](O)[C@H](O)[C@@H](O)[C@H]1O [inositol],Effect of the sorbose dehydrogenase on the substrate (in words),[2]; [4],little effect
[Cl-].[Li+] [LiCl],Relative activity (%),[1]; [3],98%
OC[C@H]1O[C@H](O[C@H]2O[C@H](CO)[C@@H](O)[C@H](O)[C@H]2O)[C@H](O)[C@@H](O)[C@@H]1O [D-trehalose],Effect of the sorbose dehydrogenase on the substrate (in words),[2]; [4],little effect
O=C[C@H](O)[C@@H](O)[C@@H](O)[C@H](O)CO [D-(+)-galactose],Effect of the sorbose dehydrogenase on the substrate (in words),[2]; [4],weak effect
same,Relative activity (%),[2]; [5],1.69%
"c1ccc(-c2ccccn2)nc1 [2,2′-bipyridine]",activity at 1000 µM,[1]; [3],88%
C[C@H](O)[C@H](O)[C@@H](O)[C@@H](O)C=O [L-rhamnose],Effect of the sorbose dehydrogenase on the substrate (in words),[2]; [4],little effect
[Ba+2].[Cl-].[Cl-] [BaCl2],Relative activity (%),[1]; [3],80%
Oc1cccc2cccnc12 [8-quinolinol],Relative activity (%),[1],106%
O=C(O)C(O)C(O)C(=O)O (stereo not drawn) [meso-tartaric acid],Relative activity (%),[1]; [3],94%
OC[C@@H](O)[C@@H](O)CO [meso-erythritol],Effect of the sorbose dehydrogenase on the substrate (in words),[2]; [4],little effect
[Cl][Pb][Cl] [PbCl2],Relative activity (%),[1],83%
[Ca+2].[Cl-].[Cl-] [CaCl2],Relative activity (%),[1],92%
N[C@@H]1CONC1=O [D-cycloserine],Relative activity (%),[1]; [3],90%
O=C(O)CI [Iodoacetic acid],activity at 1000 µM,[1],83%
[N-]=[N+]=[N-].[Na+] [NaN3],Relative activity (%),[1],115%
[Cl][Ni][Cl] [NiCl2],Relative activity (%),[1],80%
[Cl][Hg][Cl] [HgCl2],Relative activity (%),[1]; [3],0%
same,Inhibition of the sorbose dehydrogenase (in words),"[1]; heavy metal ions, 1 mM",remarkably inhibited
O=C(O)/C=C\C(=O)O [Maleic acid],activity at 1000 µM,[1],82%
"c1cnc2c(c1)ccc1cccnc12 [1,10-phenanthroline]",activity at 1000 µM,[1]; [3],77%
CCN1C(=O)C=CC1=O [N-ethylmaleimide],activity at 1000 µM,[1]; [3],88%
2-(p-)nitrobenzoic acid,Relative activity (%),[1]; [3],75%
OO [H2O2],Relative activity (%),[1],98%
OC[C@@H](O)[C@@H](O)[C@H](O)[C@@H](O)CO [D-sorbitol],Effect of the sorbose dehydrogenase on the substrate (in words),[2]; [4],little effect
O=C[C@H](O)[C@@H](O)[C@@H](O)CO [L-arabinose],Effect of the sorbose dehydrogenase on the substrate (in words),[2]; [4],little effect
[Cl-].[Na+] [NaCl],Relative activity (%),[1],85%
O=C(O)CC(O)(CC(=O)O)C(=O)O [Citric acid],activity at 1000 µM,[1],86%
[Cl][Mn][Cl] [MnCl2],Inhibition of the sorbose dehydrogenase (in words),[1],remarkably inhibited
same,Relative activity (%),[1],11%
O=C[C@H](O)[C@H](O)[C@H](O)CO [D-ribose],Effect of the sorbose dehydrogenase on the substrate (in words),[2]; [4],little effect
[Cl-].[Cl-].[Mg+2] [MgCl2],Relative activity (%),[1],93%
OC[C@H]1O[C@@H](O[C@H]2[C@H](O)[C@@H](O)[C@H](O)O[C@@H]2CO)[C@H](O)[C@@H](O)[C@@H]1O [D-cellobiose],Effect of the sorbose dehydrogenase on the substrate (in words),[2]; [4],little effect
Acriflavin,Relative activity (%),[1]; [3],66%
OC[C@H]1O[C@H](O[C@H]2[C@H](O)[C@@H](O)[C@H](O)O[C@@H]2CO)[C@H](O)[C@@H](O)[C@@H]1O [Maltose],Effect of the sorbose dehydrogenase on the substrate (in words),[2]; [4],little effect
same,Relative activity (%),[2]; [5],0%
"CC(O)C(C)O (centres unmarked) [2,3-butanediol]",Effect of the sorbose dehydrogenase on the substrate (in words),[2],little effect
same,Relative activity (%),[2],0.26%
OC[C@H]1O[C@@H](O[C@H]2[C@H](O)[C@@H](O)C(O)O[C@@H]2CO)[C@H](O)[C@@H](O)[C@H]1O (some centres unmarked) [Lactose],Effect of the sorbose dehydrogenase on the substrate (in words),[2]; [4],little effect
same,Relative activity (%),"[2]; substrate final concentration 167 mM (lactose), […]",0.71%
O=C(CO)[C@H](O)[C@@H](O)[C@H](O)CO [D-(−)-sorbose],Effect of the sorbose dehydrogenase on the substrate (in words),[2]; [4],weak effect
same,Relative activity (%),[2]; [5],2.96%
O=C([O-])CN(CCN(CC(=O)O)CC(=O)O)CC(=O)[O-].[Na+].[Na+] [EDTA-2Na],Relative activity (%),[1],102%
[Cl-].[Cl-].[Zn+2] [ZnCl2],Relative activity (%),[1]; [3],98%
CCCC(C)O (centres unmarked) [2-pentanol],Effect of the sorbose dehydrogenase on the substrate (in words),[2]; [4],little effect
O=C(CO)[C@@H](O)[C@H](O)[C@H](O)CO [D-(−)-fructose],Effect of the sorbose dehydrogenase on the substrate (in words),[2]; [4],little effect
same,Relative activity (%),[2]; [5],0%
NN=C(N)N.O=S(=O)(O)O [Aminoguanidine sulfate],Relative activity (%),[1],91%
O=C(O)/C=C/C(=O)O [Fumaric acid],activity at 1000 µM,[1],99%
CC(C)CO [2-methyl-1-propanol],Effect of the sorbose dehydrogenase on the substrate (in words),[2]; [4],weak effect
same,Relative activity (%),[2]; [6],2.06%
CoCl2,Relative activity (%),[1],86%
O=C(O)CC(O)C(=O)O (racemic) [DL-malic acid],Relative activity (%),[1]; [3],85%
OCC(O)CO [Glycerol],Effect of the sorbose dehydrogenase on the substrate (in words),[2]; [4],little effect
same,Relative activity (%),[2]; [5],0%
[Cl][Al]([Cl])[Cl] [AlCl3],Relative activity (%),[1]; [3],109%
OC[C@H]1O[C@@](CO)(O[C@H]2O[C@H](CO)[C@@H](O)[C@H](O)[C@H]2O)[C@@H](O)[C@@H]1O [sucrose],Effect of the sorbose dehydrogenase on the substrate (in words),[2]; [4],little effect
CCC(C)O (centres unmarked) [2-butanol],Effect of the sorbose dehydrogenase on the substrate (in words),[2],little effect
C=CCO [Allyl alcohol],Effect of the sorbose dehydrogenase on the substrate (in words),[2]; [4],weak effect
same,Relative activity (%),[2]; [5],3.80%
CC(O)CO (centres unmarked) [propylene glycol],Effect of the sorbose dehydrogenase on the substrate (in words),[2]; [4],little effect
O=C[C@H](O)[C@@H](O)[C@H](O)CO [D-xylose],Effect of the sorbose dehydrogenase on the substrate (in words),[2]; [4],little effect
OC[C@@H](O)[C@H](O)[C@@H](O)CO [Xylitol],Effect of the sorbose dehydrogenase on the substrate (in words),[2]; [4],little effect
same,Relative activity (%),[2]; [6],0.89%
CC(C)O [2-propanol],Effect of the sorbose dehydrogenase on the substrate (in words),[2]; [4],little effect
same,Relative activity (%),[2]; [6],0.39%
O=C[C@H](O)[C@@H](O)[C@H](O)[C@H](O)CO [D-(+)-glucose],Effect of the sorbose dehydrogenase on the substrate (in words),[2]; [4],weak effect
same,Relative activity (%),[2]; [5],1.22%
CO [methanol],Effect of the sorbose dehydrogenase on the substrate (in words),[2],little effect
CCCO [1-propanol],Effect of the sorbose dehydrogenase on the substrate (in words),[2]; [4],little effect
same,Relative activity (%),[2]; [6],0.75%
OC[C@H]1O[C@H](OC[C@H]2O[C@H](O[C@]3(CO)O[C@H](CO)[C@@H](O)[C@@H]3O)[C@H](O)[C@@H](O)[C@@H]2O)[C@H](O)[C@@H](O)[C@H]1O [D-raffinose],Effect of the sorbose dehydrogenase on the substrate (in words),[2]; [4],little effect
O=C[C@@H](O)[C@@H](O)[C@H](O)[C@H](O)CO [D-(+)-mannose],Effect of the sorbose dehydrogenase on the substrate (in words),[2]; [4],little effect
same,Relative activity (%),[2]; [5],0.15%
CCCCO [1-butanol],Effect of the sorbose dehydrogenase on the substrate (in words),[2],weak effect
same,Relative activity (%),[2],1.29%
"OC[C@H]1OC[C@H](O)[C@@H](O)[C@@H]1O [1,5-anhydroglucitol]",Effect of the sorbose dehydrogenase on the substrate (in words),[2]; [4],strong effect
same,Relative activity (%),[2]; [6],79.1%
OC[C@@H](O)[C@@H](O)[C@H](O)[C@H](O)CO [D-mannitol],Effect of the sorbose dehydrogenase on the substrate (in words),[2]; [4],little effect
